Measurements from patent US9073895B2 (Boehringer Ingelheim International GmbH, priority 2010, dated 2015).

How the values were obtained:
[1] = target: T1, recombinant human FLAP protein (Homo sapiens, UniProt P20292); assay: FLAP binding assay (SPA, displacement of [125I]L-691,831); settings: membranes of sf9 cells expressing human FLAP, [125I]L-691,831 probe; read-out: hFLAP binding IC50
T1 construct: made in house; host or cells: Sf9 insect cells (membrane fraction, 100,000 x g pellet)
T1 sequence (P20292 1-161): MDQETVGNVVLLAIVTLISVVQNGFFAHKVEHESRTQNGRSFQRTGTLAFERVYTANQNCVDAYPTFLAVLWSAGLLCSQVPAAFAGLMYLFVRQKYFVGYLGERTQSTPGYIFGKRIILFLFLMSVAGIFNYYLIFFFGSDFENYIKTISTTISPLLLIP
How it was run: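 Membranes from sf9 cells expressing human FLAP (5 μg/well) were bound to WGA SPA beads (200 μg/well). Nonspecific binding was defined with 10 μM unlabelled L-691,831.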

[2] = system: synthesis of LTB4 in human whole blood; assay: Human whole blood LTB4 production inhibition assay; assay type: cell-based; settings: heparinized human whole blood, calcimycin 20 μM, plasma LTB4; read-out: HuWB IC50
How it was run: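 Steps: compound plus heparinized human whole blood, 15 min at 37° C; add calcimycin to 20 μM final; incubate another 30 min at 37° C; centrifuge at low speed and collect plasma; measure LTB4 with a homogeneous time-resolved fluorescence immunoassay.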

SMILES	IC50 [1]	IC50 [2]
CC(C)n1ncc2cc(NC(=O)C3(c4ccc(-c5cnc(N)nc5)cc4)CCOCC3)cnc21 [Example 68, 4-[4-(2-aminopyrimidin-5-yl)phenyl]-N-[1-(propan-2-yl)-1H-pyrazolo[3,4-b]pyridin-5-yl)tetrahydro-2H-pyran-4-carboxamide]	68.5 nM	1210 nM
Cc1nc(-c2cccc(NC(=O)C3(c4ccc(-c5cnc(N)nc5)cc4)CCOCC3)c2)cs1 [Example 70, 4-[4-(2-aminopyrimidin-5-yl)phenyl]-N-[3-(2-methyl-1,3-thiazol-4-yl)phenyl]tetrahydro-2H-pyran-4-carboxamide]	42 nM	> 3000 nM
Nc1ncc(-c2ccc(C3(C(=O)Nc4ccc5c(c4)C(=O)OC5)CCOCC3)cc2)cn1 [Example 71, 4-[4-(2-aminopyrimidin-5-yl)phenyl]-N-(3-oxo-1,3-dihydro-2-benzofuran-5-yl)tetrahydro-2H-pyran-4-carboxamide]	190 nM	> 3000 nM
Nc1ncc(-c2ccc(C3(C(=O)Nc4ccc(N5CCOCC5)c(Cl)c4)CCOCC3)cc2)cn1 [Example 72, 4-[4-(2-aminopyrimidin-5-yl)phenyl]-N-[3-chloro-4-(mopholin-4-yl)phenyl]tetrahydro-2H-pyran-4-carboxamide]	28.3 nM	244 nM
COC(=O)c1sc(-c2ccc(Cl)cc2)cc1NC(=O)C1(c2ccc(-c3cnc(N)nc3)cc2)CCOCC1 [Example 73, methyl 3-[({4-[4-(2-aminopyrimidin-5-yl)phenyl]tetrahydro-2H-pyran-4-yl}carbonyl)amino]-5-(4-chlorophenyl)thiophene-2-carboxylate]	53.5 nM	1500 nM
CC(C)(C)c1cccc(NC(=O)C2(c3ccc(-c4cnc(N)nc4)cc3)CCOCC2)c1 [Example 74, 4-[4-(2-aminopyrimidin-5-yl)phenyl]-N-(3-tert-butylphenyl)tetrahydro-2H-pyran-4-carboxamide]	97 nM	> 3000 nM
Cc1nc2cc(NC(=O)C3(c4ccc(-c5cnc(N)nc5)cc4)CCOCC3)ccc2s1 [Example 75, 4-[4-(2-aminopyrimidin-5-yl)phenyl]-N-(2-methyl-1,3-benzothiazol-5-yl)tetrahydro-2H-pyran-4-carboxamide]	68 nM	> 3000 nM
COc1ccc(Oc2ccccc2)cc1NC(=O)C1(c2ccc(-c3cnc(N)nc3)cc2)CCOCC1 [Example 76, 4-[4-(2-aminopyrimidin-5-yl)phenyl]-N-(2-methoxy-5-phenoxyphenyl)tetrahydro-2H-pyran-4-carboxamide]	52.5 nM	> 3000 nM
CCN(CC)S(=O)(=O)c1cccc(NC(=O)C2(c3ccc(-c4cnc(N)nc4)cc3)CCOCC2)c1 [Example 78, 4-[4-(2-aminopyrimidin-5-yl)phenyl]-N-[3-(diethylsulfamoyl)phenyl] tetrahydro-2H-pyran-4-carboxamide]	113 nM	> 3000 nM
N#Cc1ccnc(NC(=O)C2(c3ccc(-c4cnc(N)nc4)cc3)CCOCC2)c1 [Example 79, 4-[4-(2-aminopyrimidin-5-yl)phenyl]-N-(4-cyanopyridin-2-yl)tetrahydro-2H-pyran-4-carboxamide]	53.5 nM	> 3000 nM
COC(=O)c1cccc(NC(=O)C2(c3ccc(-c4cnc(N)nc4)cc3)CCOCC2)c1 [Example 80, methyl 3-[({4-[4-(2-aminopyrimidin-5-yl)phenyl]tetrahydro-2H-pyran-4-yl}carbonyl)amino]benzoate]	60 nM	> 3000 nM
Nc1ncc(-c2ccc(C3(C(=O)Nc4cc(C(F)(F)F)ccc4N4CCOCC4)CCOCC3)cc2)cn1 [Example 81, 4-[4-(2-aminopyrimidin-5-yl)phenyl]-N-[2-(morpholin-4-yl)-5-(trifluoromethyl)phenyl] tetrahydro-2H-pyran-4-carboxamide]	54 nM	> 3000 nM
Cc1ccc2cc(NC(=O)C3(c4ccc(-c5cnc(N)nc5)cc4)CCOCC3)ccc2n1 [Example 86, 4-[4-(2-aminopyrimidin-5-yl)phenyl]-N-(2-methylquinolin-6-yl)tetrahydro-2H-pyran-4-carboxamide]	18.7 nM	412 nM
Cc1nc(-c2ccc(NC(=O)C(c3ccc(-c4cnc(N)nc4)cc3)C(C)(C)C)nc2)cs1 (centres unmarked) [Example 90, 2-[4-(2-aminopyrimidin-5-yl)phenyl]-3,3-dimethyl-N-[5-(2-methyl-1,3-thiazol-4-yl)pyridin-2-yl]butanamide]	31.5 nM	2080 nM
N#Cc1ccc(NC(=O)C2(c3ccc(-c4cnc(N)nc4)nc3)CCC2)nc1 [Example 94, 1-[6-(2-aminopyrimidin-5-yl)pyridin-3-yl]-N-(5-cyanopyridin-2-yl)cyclobutanecarboxamide]	65 nM	857 nM
CS(=O)(=O)c1ccc(NC(=O)C2(c3ccc(-c4cnc(N)nc4)nc3)CCC2)cc1 [Example 99, 1-[6-(2-aminopyrimidin-5-yl)pyridin-3-yl]-N-[4-(methylsulfonyl)phenyl]cyclobutane-carboxamide]	45.5 nM	570 nM

Stronger by IC50 [1], values ahead:

IC50 [1]	IC50 [2]	SMILES
10.5 nM	2780 nM	Nc1ncc(-c2ccc(C3(C(=O)Nc4cc5ccccc5cn4)CCOCC3)cc2)cn1 [Example 82, 4-[4-(2-aminopyrimidin-5-yl)phenyl]-N-(isoquinolin-3-yl)tetrahydro-2H-pyran-4-carboxamide]
14.5 nM	1060 nM	Nc1ncc(-c2ccc(C3(C(=O)Nc4ccc(C(F)(F)F)c(F)c4)CCOCC3)cc2)cn1 [Example 83, 4-[4-(2-aminopyrimidin-5-yl)phenyl]-N-[3-fluoro-4-(trifluoromethyl)phenyl] tetrahydro-2H-pyran-4-carboxamide]
12.5 nM	849 nM	Nc1ncc(-c2ccc(C3(C(=O)Nc4ccc(OCc5ccccc5)cc4)CCOCC3)cc2)cn1 [Example 85, 4-[4-(2-aminopyrimidin-5-yl)phenyl]-N-[4-(benzyloxy)phenyl]tetrahydro-2H-pyran-4-carboxamide]
4 nM	192 nM	CN(C)S(=O)(=O)c1ccc(NC(=O)C2(c3ccc(-c4cnc(N)nc4)cc3)CCC2)cc1 [Example 87, 1-[4-(2-aminopyrimidin-5-yl)phenyl]-N-[4-(dimethylsulfamoyl)phenyl] cyclobutanecarboxamide]
5.65 nM	278 nM	Nc1ncc(-c2ccc(C3(C(=O)Nc4ccc(S(=O)(=O)N5CCOCC5)cc4)CCC3)cc2)cn1 [Example 88, 1-[4-(2-aminopyrimidin-5-yl)phenyl]-N-[4-(mopholin-4-ylsulfonyl)phenyl]cyclobutane-carboxamide]
8.13 nM	202 nM	CS(=O)(=O)c1ccc(NC(=O)C2(c3ccc(-c4cnc(N)nc4)cc3)CCC2)cn1 [Example 89, 1-[4-(2-aminopyrimidin-5-yl)phenyl]-N-[6-(methylsulfonyl)pyridin-3-yl]cyclobutanecarboxamide]
5.45 nM	240 nM	N#Cc1ccc(NC(=O)C2(c3ccc(-c4cnc(N)nc4)nc3)CCC2)cc1Cl [Example 91, 1-[6-(2-aminopyrimidin-5-yl)pyridin-3-yl]-N-(3-chloro-4-cyanophenyl)cyclobutane-carboxamide]
15.5 nM	718 nM	Nc1ncc(-c2ccc(C3(C(=O)Nc4ccc5ncsc5c4)CCC3)cn2)cn1 [Example 92, 1-[6-(2-aminopyrimidin-5-yl)pyridin-3-yl]-N-(1,3-benzothiazol-6-yl)cyclobutanecarboxamide]
2.05 nM	312 nM	NC(=O)c1ccc(NC(=O)C2(c3ccc(-c4cnc(N)nc4)cc3)CCC2)nc1 [Example 93, 6-[({1-[4-(2-aminopyrimidin-5-yl)phenyl]cyclobutyl}carbonyl)amino]pyridine-3-carboxamide]
2.35 nM	202 nM	COC(=O)c1ccc(NC(=O)C2(c3ccc(-c4cnc(N)nc4)cc3)CCC2)nc1 [Example 95, methyl 6-[({1-[4-(2-aminopyrimidin-5-yl)phenyl]cyclobuyl}carbonyl)amino]pyridine-3-carboxylate]
4.85 nM	4100 nM	COC(=O)c1cc(NC(=O)C2(c3ccc(-c4cnc(N)nc4)cc3)CCC2)ccc1O [Example 97, methyl 5-[({1-[4-(2-aminopyrimidin-5-yl)phenyl]cyclobutyl}carbonyl)amino]-2-hydroxybenzoate]
12.2 nM	236 nM	N#Cc1ccc(NC(=O)C2(c3ccc(-c4cnc(N)nc4)nc3)CCC2)cc1 [Example 98, 1-[6-(2-aminopyrimidin-5-yl)pyridin-3-yl]-N-(4-cyanophenyl)cyclobutane-carboxamide]
1.85 nM	184 nM	Cc1noc(-c2ccc(NC(=O)C3(c4ccc(-c5cnc(N)nc5)cc4)CCC3)nc2)n1 [Example 100, 1-[4-(2-aminopyrimidin-5-yl)phenyl]-N-[5-(3-methyl-1,2,4-oxadiazol-5-yl)pyridin-2-yl]cyclobutanecarboxamide]
2.05 nM	330 nM	Nc1ncc(-c2ccc(C3(C(=O)Nc4ccc(-c5ncn[nH]5)cn4)CCC3)cc2)cn1 [Example 102, 1-[4-(2-aminopyrimidin-5-yl)phenyl]-N-[5-(1H-1,2,4-triazol-5-yl)pyridin-2-yl]cyclobutanecarboxamide]
4.1 nM	102 nM	Cn1ncnc1-c1ccc(NC(=O)C2(c3ccc(-c4cnc(N)nc4)cc3)CCC2)nc1 [Example 103, 1-[4-(2-aminopyrimidin-5-yl)phenyl]-N-[5-(1-methyl-1H-1,2,4-triazol-5-yl)pyridin-2-yl]cyclobutanecarboxamide]
